From publication PMC10573954, “Crystal Structure of DNA Replication Protein SsbA Complexed with the Anticancer Drug 5-Fluorouracil” (International Journal of Molecular Sciences, 2023) come the findings set out here.

Experiment [1] deals with T1, SsbA (SaSsbA), single-stranded DNA-binding protein (Staphylococcus aureus, UniProt A0A0D1JHQ1, R18A).
T1 construct: gene ssb; recombinant His-tagged SaSsbA R18A (pET21b)
T1 sequence (A0A0D1JHQ1 1-167 R18A): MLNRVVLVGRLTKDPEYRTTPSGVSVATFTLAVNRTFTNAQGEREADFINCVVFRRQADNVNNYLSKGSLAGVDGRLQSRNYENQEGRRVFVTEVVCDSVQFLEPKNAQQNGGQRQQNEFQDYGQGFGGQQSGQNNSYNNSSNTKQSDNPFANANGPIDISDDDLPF
The experiment can be described thus: intrinsic fluorescence quenching titration.

Experiment [2] has as its target T2, SsbA (SaSsbA), single-stranded DNA-binding protein (Staphylococcus aureus, UniProt A0A0D1JHQ1).
T2 construct: gene ssb; recombinant His-tagged SaSsbA (167 aa, pET21b); aa 105–167 not observed in the crystal structure
The experiment can be described thus: crystal structure ([…] Å) and intrinsic fluorescence quenching titration.

By Kd is commonly meant the concentration at which binding is half-saturated. Low values mean higher affinity, high ones lower affinity. `O=c1[nH]cc(F)c(=O)[nH]1` [5-FU, 5-fluorouracil]: the dissociation constant Kd turned out to be 498 ± 13.5 µM in experiment [1] and 55.9 ± 0.7 µM in experiment [2].
